Data reported in the METLIN SMRT retention time set (Domingo-Almenara et al. 2019).

Experiment: gradient 5% acetonitrile 3 min, to 50% in 2 min, to 85% in 15 min, held 3 min, 100 µL/min
Details: column: Zorbax Extend-C18 2.1 x 50 mm; eluents: water / acetonitrile, 0.1% formic acid
How it was run: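 Retention times come from adduct peaks that were picked computationally and then checked by hand. The standards, pure and pooled in mixtures of ~100 molecules, were run on a Zorbax Extend-C18 column (2.1 × 50 mm, 1.8 μm) at 100 μL/min with water and acetonitrile, each with 0.1% formic acid. Detection was by quadrupole time-of-flight mass spectrometry in positive and negative ionization mode, with a dead volume of 40 μL and a dwell volume of 900 μL.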

SMILES | RP-LC retention time [s]
O=C1CCN(C(=O)c2cccs2)CCCCCCN1 | 622
CCNc1cc(N2CCC(CCC(=O)Nc3ccc(OC)c(OC)c3)CC2)ncn1 | 614
CCOC(=O)c1[nH]c(C)c(CCC(=O)Nc2cc(OC)cc(OC)c2)c1C | 880
OC(CN1CCNCC1)Cn1c2ccc(Br)cc2c2cc(Br)ccc21 (stereo not drawn) | 732
COCC(=O)N1CCCCC1c1nncn1Cc1ccccc1 (stereo not drawn) | 612
Cn1cccc1C(=O)C(=O)Nc1ccccc1C(F)(F)F | 1060
O=C(Cc1csc(NC(=O)C2CCCC2)n1)Nc1nc(-c2cccnc2)cs1 | 600
Cn1nc(N)c2ncc(C(Cl)(Cl)Cl)nc21 | 876
Cc1sc2cc(C(=O)N(C)C)[nH]c2c1CN1CCCCC1 | 606
COc1c(C(=O)Nc2ccc3c(c2)OCO3)sc2ccc(Cl)cc12 | 1180
O=c1n(Cc2cc(F)cc(F)c2)nc2c(S(=O)(=O)N3CCCC3)cccn12 | 861
NC(=O)c1cc(N2CCOCC2)nc2ccc(F)cc12 | 688
CC1CCN(S(=O)(=O)c2ccc3nn(Cc4cccc(C#N)c4)c(=O)n3c2)CC1 | 768
CC(C)CNC(=O)C1Cn2cccc2C(=O)N1 (stereo not drawn) | 651
COc1cccc(CNC(=O)C2CCCN(c3cc(=O)n(C)c(=O)n3C)C2)c1 (stereo not drawn) | 670
CCOC(=O)/C(=N\O)C1=CSC2=NNC(C)(C)N12 | 907
O=C(Nc1nccs1)C1CCCN(c2ccc3cc(S(=O)(=O)N4CCCC4)ccc3n2)C1 (stereo not drawn) | 693
Cc1nn(C(C)C)c(C)c1S(=O)(=O)N1CCN(C(=O)C(C)Oc2ccccc2)CC1 (stereo not drawn) | 665
CC1CN(c2nc(Nc3ccc(Cl)cc3)c3cnn(C)c3n2)CC(C)O1 (stereo not drawn) | 1040
CC(C)n1c(=O)sc2cc(S(=O)(=O)N3CCC(C(=O)N4CCN(C)CC4)CC3)ccc21 | 628
C[C@@H](NC(=O)c1ccc(F)c(F)c1)C(=O)NCc1cscn1 | 648
CCOc1ccc(-c2noc(CN3C(=O)COc4cc(Cl)ccc43)n2)cc1OC | 1080
COc1cccc(C2CC(c3ccc(F)cc3)=NC3(CCN(C)CC3)N2)c1O (stereo not drawn) | 590
CCc1ccc(NC(=O)Cc2nc(C)c(C(=O)NCC(C)C)s2)cc1 | 868
Cc1ccc(Nc2c(-c3ccc4c(c3)OCO4)nc3cnccn23)c(Br)c1 | 1000
CCOC(=O)c1c[nH]c2c(C(=O)OCC)cccc2c1=O | 735

SMILES | RP-LC retention time [s]
Cc1[nH]c(C(=O)N2CCCC(C(=O)N3CCN(C4CCCCC4)CC3)C2)c(C)c1C(=O)OC(C)C (stereo not drawn) | 645
COc1ccc2[nH]cc(CCN3CC(C(=O)Nc4cc(C)ccc4C)CC3=O)c2c1 (stereo not drawn) | 774
Cc1cc(NC(=O)Cc2csc(NC(=O)c3ccc(F)cc3)n2)sn1 | 701
COc1ccc(-c2noc(CN3C(=O)COc4cc(Cl)ccc43)n2)cc1OC | 971
COc1ccc(NC(=O)N2CCc3c(C(=O)NC4CCN(C)CC4)cccc32)cc1 | 603
Cc1ccc(N2C(=O)CN(CCc3cccs3)[C@H]3CS(=O)(=O)C[C@H]32)cc1 | 825
Cc1cc(Cl)cc2sc(N(Cc3ccccn3)C(=O)CN(C)S(C)(=O)=O)nc12 | 1080
COc1ccc(N2CCN(S(=O)(=O)c3cc(-c4cc(C(F)(F)F)[nH]n4)sc3C)CC2)cc1 | 1090
CCOC(=O)c1[nH]c(C)c(CCC(=O)N2CCC(C(=O)NCCc3c(C)noc3C)CC2)c1C | 695
OCc1nc2ccccc2n1C/C=C/c1ccccc1 | 579
CCc1cc(=O)n(CC(=O)Nc2ccc(Br)cc2F)c(N2CCOCC2)n1 | 853
CC(C)N1CCN(C(=O)c2cn(-c3cc(N4CCSCC4)ncn3)cn2)CC1 | 596
CCc1nnc(-c2coc(S(=O)(=O)N3CCC(N4CCCCC4)CC3)c2)o1 | 607
Cc1cc(C)n(-c2cc(N3CCCC3)ncn2)n1 | 764
CC(Cc1cccs1)NC(=O)c1cnccn1 (stereo not drawn) | 706
CCN1C(=O)c2c(C(=O)NCCc3cccc(C)c3)ncn2CC1(C)C(=O)NC1CCCC1 (stereo not drawn) | 819
CCCOc1ccc(C2NC(=O)NC(C)=C2C(=O)OC2CCCC2)cc1OC (stereo not drawn) | 857
COCCN1CC2(CCN(S(=O)(=O)c3ccc(C(C)C)cc3)CC2)C1c1ccccc1 (stereo not drawn) | 776
Nc1nnc(Cc2ccc3c(c2)OCCO3)o1 | 589
CC(C)CCNC(=O)C1(C)Cn2nc(C(=O)NCCc3c[nH]c4ccccc34)cc2C(=O)N1C (stereo not drawn) | 786
COc1cccc2c1[C@@H]1CN(CCCCN3C(=O)NC4C(SC5NCC(c6ccccc6)NC54)C3=O)C[C@@H]1CO2 (stereo partly drawn) | 902
CC1Cc2ccccc2N1C(=O)c1ccc(=O)n(CCC(=O)NC2CCCCCC2)n1 (stereo not drawn) | 861
CCn1cnc(S(=O)(=O)N2CCC(C(=O)Nc3nc4ccc(C)cc4s3)CC2)c1 | 812
Cc1nc(-c2csc(S(=O)(=O)N3CCC(C(=O)NC4CCCCC4)CC3)c2)no1 | 879
CC(C)CNC(=O)N1CCCCC1c1nncn1-c1ccccc1 (stereo not drawn) | 683
CCS(=O)(=O)N1CCC[C@@H]2CN3CCc4cc(OC)ccc4[C@@H]3C[C@@H]21 | 670

More lines, now with the values ahead:

RP-LC retention time [s] | SMILES
769 | O=C(NCc1cccs1)C1CCN(c2nnc(-c3ccccc3)o2)CC1
687 | O=C(c1cc(C2CC2)n(CC(=O)N(Cc2ccccc2)c2ccccn2)n1)N1CCOCC1
564 | CCn1cc(CC(=O)NC2CCN(Cc3ccccc3)CC2)c2cccnc21
1060 | COc1cc(NC(=O)CCSc2ccccc2)c2ncccc2c1
994 | O=C(Cn1cccc1-c1nc(-c2ccc3c(c2)OCO3)no1)Nc1ccc(F)cc1
891 | CCn1c(C(=O)Nc2cccc(C)n2)cc2c(=O)oc3ccccc3c21
1050 | Cc1noc(C)c1-c1ccc(S(=O)(=O)N2CCc3ccccc3C2)cc1
987 | N#Cc1cccc(S(=O)(=O)N2CCc3nc(-c4ccccc4)ncc3C2)c1
754 | O=C(C1=CN(c2ccccc2)c2cc(F)ccc2S1(=O)=O)N1CCOCC1
722 | Cc1cc(C)c2c(N3CCSCC3)nc(C(=O)N3CCN(c4ccccc4)CC3)nc2n1
702 | CCc1nc(-c2csc(S(=O)(=O)N3CCC(C(=O)NCc4ccccc4)CC3)c2)no1
531 | c1ccc(-c2n[nH]c(C3CCCN(Cc4ccoc4)C3)n2)cc1 (stereo not drawn)
869 | O=C(N1CCC(n2nc(-c3ccsc3)ccc2=O)CC1)C1(c2ccccc2)CC1
906 | O=C(Cn1c(=O)cc(-c2nc(C3CC3)no2)c2ccccc21)NCc1ccc2c(c1)OCO2
737 | Cc1ccc(-c2ccc(N3CCCC(C(=O)NCC(C)C)C3)nn2)cc1C (stereo not drawn)
1040 | Cc1nc(-c2ccc3c(c2)CCN3C(=O)c2nccc3ccccc23)cs1
880 | O=C(c1cncc(NS(=O)(=O)c2ccc(Cl)cc2)c1)N1CCCc2ccccc21
736 | COc1cc(NC(=O)Cn2nc3cc(-c4ccccc4)nc(C)n3c2=O)cc(OC)c1

RP-LC retention time [s] | SMILES
1230 | CCOc1cccc(-c2noc(Cn3cnc4c(cnn4-c4cc(Cl)ccc4C)c3=O)n2)c1
917 | Cc1ccccc1C(=O)Nc1nnc(SCc2nnc(-c3ccccc3)o2)s1
866 | Cc1nc(-c2noc(-c3ccccc3)n2)cn1CC(=O)NCc1cccc(Cl)c1
872 | O=C(NCc1ccc(F)c(Cl)c1)c1nnn(-c2ccccc2)c1-c1ccccn1
754 | COc1ccc(NC(=O)Cn2cnc(-c3ccc(F)cc3)cc2=O)c(OC)c1
630 | COc1ccc(-c2ccc3ncc4c(c3c2)n(-c2ccc(N3CCNCC3)c(C(F)(F)F)c2)c(=O)n4C)cn1
585 | O=C(NCc1ccccn1)C1CCCN(c2ccc3cc(S(=O)(=O)N4CCCC4)ccc3n2)C1 (stereo not drawn)
1200 | COc1cccc(NC(=O)c2c(O)c3cccnc3n(-c3ccc(F)cc3)c2=O)c1
1310 | O=C1COc2ccc(Cl)cc2N1Cc1nc(-c2ccc(-c3csc(C4CC4)n3)cc2)no1
667 | CCC1CCCCN1C(=O)c1cnc2nc(C)ccc2c1Nc1ccc(OC)cc1OC (stereo not drawn)
994 | COc1ccc(/C=C2\CCc3ccccc3C2=O)cc1OC
1040 | Cc1cc(=O)n(CC(=O)Nc2ccccc2F)c(-c2ccc(F)cc2)n1
784 | O=C(Cc1nnc(-c2ccc3ncccc3c2)o1)Nc1cc(F)cc(F)c1
728 | CSc1cccc(NC(=O)COc2cccc(-c3nnc4n3CCCC4)c2)c1
768 | CC(=O)N1CCc2cc(N3CC(C(=O)Nc4cc(Cl)ccc4F)CC3=O)ccc21 (stereo not drawn)
743 | Cc1cc(C)n2nc(CN(C(=O)c3ccco3)c3ccccc3Cl)nc2n1
834 | CC(C)N1C(=O)c2cccnc2Sc2cc(NC(=O)Cc3cccs3)ccc21
737 | CCOc1ccc(NC(=O)CSc2ncc(S(=O)(=O)c3ccccc3)c(=O)[nH]2)cc1
